The source of these data is publication PMC10304470, “Characterization of the Antimicrobial Activities of Trichoplusia ni Cecropin A as a High-Potency Therapeutic against Colistin-Resistant Escherichia coli” (Pharmaceutics, 2023).

Peptide text beside a SMILES is read from it.

Series [1] relates to LPS-stimulated RAW 264.7 cells. Nature of the series: Nitrite (NO) production in LPS-stimulated macrophages, Griess. Type of series: cell-based, mouse. Particulars: 5 μM peptide, 1 h pretreatment, 20 ng/mL LPS, 16 h. How it is done: Murine macrophage RAW 264.7 cells were used to measure the anti-inflammatory activities of peptides. Culture plates (96-well) were seeded at a density of 1 × 10^5 cells/well and stimulated with 20 ng/mL LPS (O111:B4; Sigma-Aldrich) for 16 h after 1 h pretreatment with each concentration of peptide (0.6 to 10 μM). The control is an untreated cell. The culture supernatant was added to an equal volume of Griess reagent (Sigma-Aldrich), and the absorbance was measured at 540 nm. Nitrite production was quantified using a standard curve constructed using NaNO2.
In general terms: Griess reagent forms a coloured azo dye with nitrite.

Series [2] deals with sheep red blood cells (sRBCs). The series is described as follows: Hemolysis. Particulars: 100 μM peptide, 1 h, 37 °C. The series is classed as cell-based. Here is the method: Sheep red blood cells (sRBCs; KisanBio, Seoul, Republic of Korea) were added to three volumes of phosphate-buffered saline (PBS; 35 mM phosphate buffer containing 150 mM NaCl, pH 7.4) and centrifuged five times at 4 °C, 1000× g for 5 min, followed by a final suspension in PBS at 4% (w/v). Peptides serially diluted from 100 μM to 3.1 μM in PBS at 100 μL in a 96-well plate were prepared, and an equal volume of blood solution was added. After incubation at 37 °C for 1 h, the plates were centrifuged for 5 min at 4 °C, 1000× g. The absorbance of the supernatant was measured at 405 nm. The 100% hemolysis control was 0.1% Triton-X 100 added to the blood solution; the negative control was blood solution added to PBS.

Series [3] deals with colistin-resistant E. coli NMA 1557 (ColREC 1557). Type of series: cell-based, Escherichia coli. Particulars: MH broth, 2 × 10^5 cells/mL, 16 h, 37 °C, OD600, >95% killing. From the text: (§1) E. coli (KCTC 1682) was obtained from the Korean Collection for Type Cultures (KCTC, Jeongeup, Republic of Korea), and Acinetobacter baumannii (KCCM 40203) and Pseudomonas aeruginosa (KCCM 11328) from the Korea Culture Center of Microorganisms (KCCM, Seoul, Republic of Korea). Klebsiella pneumoniae (NCCP 16054), colistin-resistant E. coli NMA 1557 (ColREC 1557), NMS 12 (ColREC 12), and colistin-resistant A. baumannii NMS 1915 (ColRAB 1915), as well as colistin-resistant K. pneumoniae NMS 139 (ColRKP 139), were obtained from the National Institute of Health Multidrug Resistant Bacteria Specialized Pathogen Resources Bank (Osong, Republic of Korea).
(§2) The antibacterial abilities of the peptides (T. ni cecropin, cecropin A, polymyxin B, colistin, and melittin) were determined using the broth dilution method as previously reported. The peptides dissolved at 10 mg/mL in deionized water were serially diluted from 64 μM to 0.5 μM in 96-well plates using Mueller–Hinton (MH) broth, and bacteria cultured to exponential growth were added at 2 × 10^5 cells/mL. The group of bacteria that grew untreated in the broth was set as the positive control, and the uninoculated broth as the negative control. Dissolved peptides are colorless and equal to the OD value of the medium only. After 16 h incubation at 37 °C, the absorbance at 600 nm was measured using a SpectraMAX microplate reader (Molecular Devices, San Jose, CA, USA).

The test system of another series is E. coli (KCTC 1682). The series is classed as cell-based, Escherichia coli. The settings on record: KCTC 1682, 16 h.
Description: as §1, §2

The test system of series [4] is colistin-resistant E. coli NMS 12 (ColREC 12). The series is classed as cell-based, Escherichia coli. Particulars: MH broth, 2 × 10^5 cells/mL, 16 h, 37 °C, OD600, >95% killing.
Description: as §1, §2

Series [5] concerns Klebsiella pneumoniae (NCCP 16054). The series is classed as cell-based. The settings on record: NCCP 16054, 16 h.
Description: as §1, §2

For series [6], the system named is Acinetobacter baumannii (KCCM 40203). The series is classed as cell-based. The settings on record: KCCM 40203, 16 h.
Description: as §1, §2

Series [7] relates to Pseudomonas aeruginosa (KCCM 11328). Type of series: cell-based. Particulars: KCCM 11328, 16 h.
Description: as §1, §2

In the case of `CC[C@H](C)CCCCC(=O)N[C@@H](CCN)C(=O)N[C@H](C(=O)N[C@@H](CCN)C(=O)N[C@H]1CCNC(=O)[C@H]([C@@H](C)O)NC(=O)[C@H](CCN)NC(=O)[C@H](CCN)NC(=O)[C@H](CC(C)C)NC(=O)[C@@H](CC(C)C)NC(=O)[C@H](CCN)NC1=O)[C@@H](C)O` [colistin] (HELM PEPTIDE1{[CC[C@H](C)CCCCC(=O)[*:2]].[Dab].T.[Dab].[Dab].[Dab].[dL].L.[Dab].[Dab].T}$PEPTIDE1,PEPTIDE1,5:R3-11:R2$$$V2.0; N-terminus assumed; bridges inferred), in series [1], the “inhibition of NO” value was “over 90%”. In series [2], the hemolytic activity entry is “no hemolytic activity”. The “Minimal Inhibitory Concentration” value in series [3] is 8 µM; in the series on E. coli (KCTC 1682), 0.25 µM; in series [4] it was 4 µM; in series [5], 0.25 µM; in series [6] it was 0.25 µM; in series [7] it was 1 µM.
